# Tests used:
# ECHCO = assay: Example I postemergence foliar-applied, greenhouse, direct seeded rice weeds; type: in vivo, Echinochloa colona (L.) Link
# Excerpt: Seeds or nutlets of the desired test plant species were planted in a soil matrix prepared by mixing a loam or sandy loam soil (e.g., 28.6 percent silt, 18.8 percent clay, and 52.6 percent sand, with a pH of about 5.8 and an organic matter content of about 1.8 percent) and calcareous grit in an 80 to 20 ratio. The soil matrix was contained in plastic pots with a volume of 1 quart and a surface area of 83.6 square centimeters (cm^2). When required to ensure good germination and healthy plants, a fungicide treatment and/or other chemical or physical treatment was applied. The plants were grown for 8-22 days in a greenhouse with an approximate 14 hr. photoperiod which was maintained at about 29° C. during the day and 26° C. during the night. Nutrients (Peters Excel® 15-5-15 5-Ca 2-Mg and iron chelate) were applied in the irrigation solution as needed and water was added on a regular basis. Supplemental lighting was provided with overhead metal halide 1000-Watt lamps as necessary. The plants were employed for testing when they reached the first through fourth true leaf stage.
# Treatments consisted of the acid or esters of 4-amino-3-chloro-5-fluoro-6-(4-chloro-2-fluoro-3-methoxy-phenyl)pyridine-2-carboxylic acid (Compound A), each formulated as an SC (suspension concentrate), and various herbicidal components alone and in combination.
# Other herbicidal components were applied on an acid equivalent (ae) or active ingredient (ai) basis and included acetyl coA carboxylase (ACCase)-inhibiting herbicides (cyclohexanedione and aryloxyphenoxypropionate chemical classes) cyhalofop-butyl formulated as Clincher® SF (285 gr ai/L EC), diclofop-methyl formulated as Hoelon® 3EC, fenoxaprop-p-ethyl+isoxadifen-ethyl formulated as RiceStar® HT (0.58 lb./gal EC), fenoxaprop-p-ethyl+mefenpyr diethyl formulated as Puma® IEC, metamifop formulated as Metamifop EC, haloxyfop-methyl formulated as Gallant Super®, fluazifop-p-butyl formulated as Fusilade® DX, quizalofop-p-ethyl formulated as Assure® II, profoxydim formulated as Aura® 20EC, clethodim applied as Intensity®, sethoxydim formulated as Poast®, and tralkoxydim formulated as Achieve®.
# Treatment requirements were calculated based upon the rates being tested, the concentration of active ingredient or acid equivalent in the formulation, and a 12 mL application volume at a rate of 187 L/ha.
# For treatments comprised of formulated compounds, measured amounts of compounds were placed individually in 25 mL glass vials and diluted in a volume of 1.25% (v/v) Agri-Dex® crop oil concentrated to obtain 12× stock solutions. […] Application solutions were prepared by adding an appropriate amount of each stock solution (e.g., 1 mL) and diluted to the appropriate final concentrations with the addition of 10 mL of an aqueous mixture of 1.25% (v/v) crop oil concentrate so that the final spray solutions contained 1.25+/−0.05% (v/v) crop oil concentrate.
# All stock solutions and applications solutions were visually inspected for compound compatibility prior to application. Spray solutions were applied to the plant material with an overhead Mandel track sprayer equipped with a 8002E nozzles calibrated to deliver 187 L/ha over an application area of 0.503 m^2 at a spray height of 18 to 20 inches (46 to 50 cm) above average plant canopy height. Control plants were sprayed in the same manner with the solvent blank.
# The treated plants and control plants were placed in a greenhouse as described above and watered by sub-irrigation to prevent wash-off of the test compounds. After approximately 3 weeks, the condition of the test plants as compared with that of the untreated plants was determined visually and scored on a scale of 0 to 100 percent where 0 corresponds to no injury or growth inhibition and 100 corresponds to complete kill. […]
# CYPRO = assay: Example II in-water applied, greenhouse, transplanted paddy rice weeds; type: in vivo, Cyperus rotundus L.
# Method: (§1) Weed seeds or nutlets of the desired test plant species were planted in puddled soil (mud) prepared by mixing a shredded, non-sterilized mineral soil (50.5 percent silt, 25.5 percent clay, and 24 percent sand, with a pH of about 7.6 and an organic matter content of about 2.9 percent) and water at a 1:1 volumetric ratio. The prepared mud was dispensed in 365 mL aliquots into 16-ounce (oz.) non-perforated plastic pots with a surface area of 86.59 square centimeters (cm^2) leaving a headspace of 3 centimeters (cm) in each pot. Mud was allowed to dry overnight prior to planting or transplanting. Rice seeds were planted in Sun Gro MetroMix® 306 planting mixture, which typically has a pH of 6.0 to 6.8 and an organic matter content of about 30 percent, in plastic plug trays. Seedlings at the second or third leaf stage of growth were transplanted into 860 mL of mud contained in 32-oz. non-perforated plastic pots with a surface area of 86.59 cm^2 4 days prior to herbicide application. The paddy was created by filling the headspace of the pots with 2.5 to 3 cm of water. […] The plants were grown for 4-22 days in a greenhouse with an approximate 14 hr. photoperiod which was maintained at about 29° C. during the day and 26° C. during the night. Nutrients were added as Osmocote® (19:6:12, N:P:K+minor nutrients) at 2 g per 16-oz. pot and 4 g per 32-oz. pot. Water was added on a regular basis to maintain the paddy flood, and supplemental lighting was provided with overhead metal halide 1000-Watt lamps as necessary. The plants were employed for testing when they reached the first through fourth true leaf stage.
# (§2) Treatments consisted of the acid or esters of 4-amino-3-chloro-5-fluoro-6-(4-chloro-2-fluoro-3-methoxy-phenyl)pyridine-2-carboxylic acid (compound A) each formulated as an SC (suspension concentrate) and various herbicidal components alone and in combination.
# (§3) For formulated compounds, a measured amount was placed in an individual 100 or 200 mL glass vial and was dissolved in a volume of 1.25% (v/v) Agri-Dex® crop oil concentrate to obtain application solutions.
# (§4) Applications were made by injecting with a pipetter appropriate amounts of the application solutions, individually and sequentially, into the aqueous layer of the paddy. Control plants were treated in the same manner with the solvent blank. Applications were made so that all treated plant material received the same concentrations of acetone and crop oil concentrate.
# (§5) The treated plants and control plants were placed in a greenhouse as described above and water was added as needed to maintain a paddy flood. After approximately 3 weeks the condition of the test plants as compared with that of the untreated plants was determined visually and scored on a scale of 0 to 100 percent where 0 corresponds to no injury or growth inhibition and 100 corresponds to complete kill.
# (§6) Colby's equation was used to determine the herbicidal effects expected from the mixtures (Colby, S. R. 1967. Calculation of the synergistic and antagonistic response of herbicide combinations. Weeds 15:20-22.).
# (§7) The following equation was used to calculate the expected activity of mixtures containing two active ingredients, A and B: Expected=A+B−(A×B/100)
# ECHCG = assay: as above; type: in vivo, Echinochloa crusgalli (L.) Beauv.
# Method: as §4, §5, §6, §7
# LEFCH = assay: as above; type: in vivo, Leptochloa chinensis (L.) Nees
# Method: as §1, §2, §3, §4, §5, §6, §7
smiles,measurement,setting,value
"COc1c(Cl)ccc(-c2nc(C(=O)OCc3ccccc3)c(Cl)c(N)c2F)c1F [Compound A Benzyl Ester, benzyl ester of 4-amino-3-chloro-5-fluoro-6-(4-chloro-2-fluoro-3-methoxy-phenyl)pyridine-2-carboxylic acid]",Visual Weed Control (%) - 21 DAA ECHCO Obs,ECHCO; 8 gae/ha,40%
same,Visual Weed Control (%) - 21 DAA ECHCO Obs,ECHCO; 16 gae/ha,70%
same,Visual Weed Control (%) - 21 DAA ECHCO Obs,ECHCO; 32 gae/ha,95%
same,Visual Weed Control (%) - 20 DAA CYPRO Obs,CYPRO; 4.38 gae/ha,50%
same,Visual Weed Control (%) - 21 DAA CYPRO Obs,CYPRO; 4.38 gae/ha,20%
same,Visual Weed Control (%) - 20 DAA CYPRO Obs,CYPRO; 8.75 gae/ha,100%
same,Visual Weed Control (%) - 20 DAA CYPRO Obs,CYPRO; 17.5 gae/ha,100%
same,Visual Weed Control (%) - 21 DAA ECHCG Obs,ECHCG; 4.38 gae/ha,15%
same,Visual Weed Control (%) - 22 DAA ECHCG Obs,ECHCG; 8 gae/ha,50%
same,Visual Weed Control (%) - 22 DAA ECHCG Obs,ECHCG; 16 gae/ha,60%
same,Visual Weed Control (%) - 21 DAA ECHCG Obs,ECHCG; 17.5 gae/ha,75%
same,Visual Weed Control (%) - 22 DAA ECHCG Obs,ECHCG; 32 gae/ha,99%
"CCC/C(=N\OCC(C)Oc1ccc(Cl)cc1)C1=C(O)CC(C2CCCSC2)CC1=O (centres unmarked) [Profoxydim, 2-[1-[[2-(4-chlorophenoxy)propoxy]imino]butyl]-3-hydroxy-5-(tetrahydro-2H-thiopyran-3-yl)-2-cyclohexen-1-one, reference compound]",Visual Weed Control (%) - 20 DAA ECHCO Obs,ECHCO; 12.5 gai/ha,70%
same,Visual Weed Control (%) - 21 DAA LEFCH Obs,"LEFCH; in-water, 25 gai/ha",85%
same,Visual Weed Control (%) - 22 DAA ECHCG Obs,ECHCG; 50 gai/ha,30%
"CCOC(=O)[C@@H](C)Oc1ccc(Oc2cnc3cc(Cl)ccc3n2)cc1 [Quizalofop-p-ethyl, ethyl(2R)-2-[4-[(6-chloro-2-quinoxalinyl)oxy]phenoxy]propanoate, reference compound]",Visual Weed Control (%) - 21 DAA CYPRO Obs,CYPRO; 15 gai/ha,0%
same,Visual Weed Control (%) - 21 DAA CYPRO Obs,CYPRO; 30 gai/ha,0%
same,Visual Weed Control (%) - 21 DAA ECHCG Obs,ECHCG; 15 gai/ha,50%
same,Visual Weed Control (%) - 21 DAA ECHCG Obs,ECHCG; 30 gai/ha,100%
"COc1c(Cl)ccc(-c2nc(C(=O)O)c(Cl)c(N)c2F)c1F [Compound A Acid, 4-amino-3-chloro-6-(4-chloro-2-fluoro-3-methoxyphenyl)-5-fluoropyridine-2-carboxylic acid]",Visual Weed Control (%) - 20 DAA ECHCO Obs,ECHCO; 4.38 gae/ha,40%
same,Visual Weed Control (%) - 20 DAA ECHCO Obs,ECHCO; 8.75 gae/ha,60%
same,Visual Weed Control (%) - 20 DAA ECHCO Obs,ECHCO; 17.5 gae/ha,85%
same,Visual Weed Control (%) - 19 DAA LEFCH Obs,LEFCH; 42.4 gae/ha in-water,10%
same,Visual Weed Control (%) - 21 DAA LEFCH Obs,"LEFCH; in-water, 17.5 gae/ha",0%
same,Visual Weed Control (%) - 21 DAA LEFCH Obs,"LEFCH; in-water, 35 gae/ha",20%
same,Visual Weed Control (%) - 21 DAA CYPRO Obs,CYPRO; 8.75 gae/ha,0%
same,Visual Weed Control (%) - 21 DAA CYPRO Obs,CYPRO; Compound A Acid 8.75 gae/ha,0%
same,Visual Weed Control (%) - 21 DAA CYPRO Obs,CYPRO; Compound A Acid 17.5 gae/ha,30%
same,Visual Weed Control (%) - 21 DAA CYPRO Obs,CYPRO; Compound A Acid 35 gae/ha,85%
same,Visual Weed Control (%) - 22 DAA ECHCG Obs,ECHCG; 16 gae/ha,20%
same,Visual Weed Control (%) - 22 DAA ECHCG Obs,ECHCG; 32 gae/ha,25%
"CCCCOC(=O)[C@@H](C)Oc1ccc(Oc2ccc(C#N)cc2F)cc1 [Cyhalofop-butyl, butyl(2R)-2-[4-(4-cyano-2-fluorophenoxy)phenoxy]propanoate, reference compound]",Visual Weed Control (%) - 19 DAA LEFCH Obs,"LEFCH; 180 gai/ha, in-water",75%

# Source: patent US9232796B2, “Herbicidal compositions comprising 4-amino-3-chloro-5-fluoro-6-(4-chloro-2-fluoro-3-methoxyphenyl) pyridine-2-carboxylic acid or a derivative thereof and acetyl-CoA carboxylase (ACCase) inhibitors” (DOW AGROSCIENCES LLC, priority 2012, dated 2016)
